Test results from patent publication EP0017970A1, “Novel beta-lactam derivatives and process for production thereof” (SANRAKU-OCEAN CO., LTD., priority 1979, dated 1980).
In brackets after ≈: the same amount, converted by molar mass. Structures can show the parent of a compound that is named as a salt. Blank lines part the entries; values can stand above or below the compound they belong to.

Experiments:
Alcaligenes faecalis A 1 = test: MIC, agar dilution assay; format: cell-based; settings: 35°C for 20 hours; for MIC: Alcaligenes faecalis, A1, 20 h, read-out: Antibiotic Activity minimum inhibitory concentration
Procedure: (§1) The antibiotic activities shown in Tables 1-1 to 1-9 above were determined in the following manner. The minimum inhibitory concentrations of the compounds of formula (VI-b) in Tables I-1 to 1-8 and the known compounds in Table 1-9 on the various microorganisms shown in the above tables were measured by an agar dilution assay method using a brain heart infusion agar medium "Difco" (a product of Difco Laboratories Inc.). A sample of the test compound was dissolved in sterile distilled water and diluted to prepare a twofold dilution series of the compound solution. In a betri dish of 9 cm in diameter, 1 ml of the compound solution was added to 9 ml of a molten sterile heart infusion agar medium (Difco Laboratories Inc.) at. about 60°C to prepare an agar plate containing the compound. An overnight culture of each test organism indicated in the above table, which was prepared by stationary cultivation in trypto-soy broth (Eiken Chemi. Co., Ltd.) at 35°C for 18 to 20 hours, was diluted with the trypto-soy broth to give approximately 10^8 cells/ml and the diluted inoculum was inoculated in the agar plate. After cultivating the plate at 35°C for 20 hours, the growth of the organism was observed. The minimum concentration of the compound at which no growth of the microorganism was noted was determined, and defined as the minimum inhibitory concentration of the test compound.

[1] = test system: Bacillus subtilis ATCC 6633; test: MIC, agar dilution assay; format: cell-based; settings: 35°C for 20 hours; for MIC: Bacillus subtilis, ATCC6633, 20 h, read-out: Antibiotic Activity minimum inhibitory concentration
Procedure: as §1

[2] = test system: Citrobacter freundii GN 346; test: MIC, agar dilution assay; format: cell-based; settings: GN346, 20 h, 35°C for 20 hours, read-out: Antibiotic Activity minimum inhibitory concentration
Procedure: as §1

[3] = test system: Comamonas terrigena B-996; test: MIC, agar dilution assay; format: cell-based; settings: 35°C for 20 hours; for MIC: Comamonas terrigena, B996, 20 h, read-out: Antibiotic Activity minimum inhibitory concentration
Procedure: as §1

[4] = test system: Enterobacter aerogenes E19; test: MIC, agar dilution assay; format: cell-based; settings: 35°C for 20 hours; for MIC: Klebsiella aerogenes, E19, 20 h, read-out: Antibiotic Activity minimum inhibitory concentration
Procedure: as §1

Enterobacter cloacae 45 = test: MIC, agar dilution assay; format: cell-based; settings: Enterobacter cloacae, 45, 20 h, 35°C for 20 hours, read-out: Antibiotic Activity minimum inhibitory concentration
Procedure: as §1

Enterobacter sp. E8 = test: MIC, agar dilution assay; format: cell-based; settings: 35°C for 20 hours; for MIC: Enterobacter, SP.E8, 20 h, read-out: Antibiotic Activity minimum inhibitory concentration
Procedure: as §1

Escherichia coli K-12 = test: MIC, agar dilution assay; format: cell-based; settings: 35°C for 20 hours; for MIC: Escherichia coli, K12, 20 h, read-out: Antibiotic Activity minimum inhibitory concentration
Procedure: as §1

Escherichia coli RGN 823 = test: MIC, agar dilution assay; format: cell-based; settings: RGN823, 20 h, 35°C for 20 hours, read-out: Antibiotic Activity minimum inhibitory concentration
Procedure: as §1

[5] = test system: Klebsiella pneumoniae K-13; test: MIC, agar dilution assay; format: cell-based; settings: K13, 35°C for 20 hours, read-out: Antibiotic Activity minimum inhibitory concentration
Procedure: as §1

Proteus mirabilis P6 = test: MIC, agar dilution assay; format: cell-based; settings: P6, 20 h, 35°C for 20 hours, read-out: Antibiotic Activity minimum inhibitory concentration
Procedure: as §1

Proteus rettgeri P7 = test: MIC, agar dilution assay; format: cell-based; settings: 35°C for 20 hours; for MIC: Providencia rettgeri, P7, 20 h, read-out: Antibiotic Activity minimum inhibitory concentration
Procedure: as §1

Proteus sp. P22 = test: MIC, agar dilution assay; format: cell-based; settings: 35°C for 20 hours, read-out: Antibiotic Activity minimum inhibitory concentration
Procedure: as §1

Proteus vulgaris GN76 = test: MIC, agar dilution assay; format: cell-based; settings: 35°C for 20 hours, read-out: Antibiotic Activity minimum inhibitory concentration
Procedure: as §1

Providencia sp. P8 = test: MIC, agar dilution assay; format: cell-based; settings: 35°C for 20 hours; for MIC: Providencia, SP.P8, 20 h, read-out: Antibiotic Activity minimum inhibitory concentration
Procedure: as §1

[6] = test system: Pseudomonas aeruginosa IFO3445; test: MIC, agar dilution assay; format: cell-based; settings: 35°C for 20 hours, read-out: Antibiotic Activity minimum inhibitory concentration
Procedure: as §1

[7] = test system: Pseudomonas aeruginosa NCTC10490; test: MIC, agar dilution assay; format: cell-based; settings: 35°C for 20 hours, read-out: Antibiotic Activity minimum inhibitory concentration
Procedure: as §1

Sarcina lutea = test: MIC, agar dilution assay; format: cell-based; settings: 35°C for 20 hours; for MIC: Micrococcus luteus, 20 h, read-out: Antibiotic Activity minimum inhibitory concentration
Procedure: as §1

Serratia marcescens S18 = test: MIC, agar dilution assay; format: cell-based; settings: 35°C for 20 hours; for MIC: Serratia marcescens, S18, 20 h, read-out: Antibiotic Activity minimum inhibitory concentration
Procedure: as §1

Serratia marcescens T55 = test: MIC, agar dilution assay; format: cell-based; settings: 35°C for 20 hours; for MIC: Serratia marcescens, T55, 20 h, read-out: Antibiotic Activity minimum inhibitory concentration
Procedure: as §1

[8] = test system: Staphylococcus aureus FDA 209P; test: MIC, agar dilution assay; format: cell-based; settings: 35°C for 20 hours; for MIC: Staphylococcus aureus, FDA209P, 20 h, read-out: Antibiotic Activity minimum inhibitory concentration
Procedure: as §1

[9] = test system: Staphylococcus aureus Russell; test: MIC, agar dilution assay; format: cell-based; settings: 35°C for 20 hours; for MIC: Staphylococcus aureus, 20 h, read-out: Antibiotic Activity minimum inhibitory concentration
Procedure: as §1

[10] = test system: Staphylococcus aureus Smith; test: MIC, agar dilution assay; format: cell-based; settings: 35°C for 20 hours; for MIC: Staphylococcus aureus, 20 h, read-out: Antibiotic Activity minimum inhibitory concentration
Procedure: as §1

[11] = test system: Staphylococcus epidermidis; test: MIC, agar dilution assay; format: cell-based; settings: 35°C for 20 hours; for MIC: 20 h, read-out: Antibiotic Activity minimum inhibitory concentration
Procedure: as §1

[12] = Solubility (physical and chemical properties); format: physicochemical
Procedure: The resulting powder was dissolved in 1 ml of a phosphate buffer (M/100, pH 8.4), and charged onto a column (1.1 x 90 cm) of Sephadex G-10 (a product of Pharmacia Fine Chemicals, Co.), and developed with the same buffer. The active fractions were collected by measuring their ultraviolet absorptions (λ300 nm). These fractions were adsorbed to a column (1.1 x 20 cm) of QAE Sephadex A-25 equilibrated with phosphate buffer (M/100, pH 8.4), and the column was eluted with 200 ml of phosphate buffer (M/100, pH 8.4) having a sodium chloride concentration linearly varying from 0 to O.lM by a concentration gradient method. The ultraviolet absorption (X300 nm) of each of the fractions was measured, and the active fractions were collected. Sodium chloride was added to the active fractions so that the concentration of sodium chloride reached 3% (w/v). The mixture was adsorbed to a column (1.1 x 20 cm) of Diaion HP-20AG (200 - 400 mesh), and eluted with water. The eluates were lyophilized to afford 5 mg of the sodium salt of PS-3 as a white dry powder. The physical and chemical properties of the product were as follows: • 1) Color Colorless • 2) Solubility

[13] = Reaction with hydroxylamine, loss of UV absorbance; format: physicochemical; settings: about 20 µg/ml, hydroxylamine 10 mM, pH 7.5, 22°C for 30 minutes
Procedure: An aqueous solution of hydroxylamine having a pH of 7.5 is added to a solution of the above substance in deionized water so that the concentration of the antibiotic PS-3 to about 20 µg/ml and the concentration of hydroxylamine to 10 mM. When the mixed solution is allowed to stand at 22°C for 30 minutes, about 93% of its absorbance at 300.0 nm disappears.

Compound: CCC1C(=O)N2C(C(=O)O)=C(Sc3ccncc3)CC12 (stereo not shown) [Table I-1 R1=H]
MIC (Alcaligenes faecalis A 1): < 0.007 mg/L
MIC [1]: < 0.007 mg/L
MIC [2]: 29.5 mg/L (≈ 102 µM)
MIC [3]: < 0.007 mg/L
MIC [4]: 7.4 mg/L (≈ 25.5 µM)
MIC (Enterobacter cloacae 45): 29.5 mg/L (≈ 102 µM)
MIC (Enterobacter sp. E8): 0.46 mg/L (≈ 1.58 µM)
MIC (Escherichia coli K-12): 0.92 mg/L (≈ 3.17 µM)
MIC (Escherichia coli RGN 823): 14.8 mg/L (≈ 51 µM)
MIC [5]: 14.8 mg/L (≈ 51 µM)
MIC (Proteus mirabilis P6): 1.8 mg/L (≈ 6.2 µM)
MIC (Proteus rettgeri P7): 1.8 mg/L (≈ 6.2 µM)
MIC (Proteus sp. P22): 29.5 mg/L (≈ 102 µM)
MIC (Proteus vulgaris GN76): 29.5 mg/L (≈ 102 µM)
MIC (Providencia sp. P8): 0.92 mg/L (≈ 3.17 µM)
MIC [6]: 0.92 mg/L (≈ 3.17 µM)
MIC [7]: 0.92 mg/L (≈ 3.17 µM)
MIC (Sarcina lutea): < 0.007 mg/L
MIC (Serratia marcescens S18): 29.5 mg/L (≈ 102 µM)
MIC (Serratia marcescens T55): 29.5 mg/L (≈ 102 µM)
MIC [8]: < 0.007 mg/L
MIC [9]: < 0.007 mg/L
MIC [10]: < 0.007 mg/L
MIC [11]: < 0.007 mg/L

Compound: CC(C)C1C(=O)N2C(C(=O)O)=C(Sc3ccncc3)CC12 (stereo not shown) [Table I-1 R1=-CH3]
MIC (Alcaligenes faecalis A 1): 0.013 mg/L (≈ 0.0427 µM)
MIC [1]: 0.013 mg/L (≈ 0.0427 µM)
MIC [2]: 50 mg/L (≈ 164 µM)
MIC [3]: 0.007 mg/L (≈ 0.023 µM)
MIC [4]: 12.5 mg/L (≈ 41.1 µM)
MIC (Enterobacter cloacae 45): 50 mg/L (≈ 164 µM)
MIC (Enterobacter sp. E8): 1.56 mg/L (≈ 5.13 µM)
MIC (Escherichia coli K-12): 3.13 mg/L (≈ 10.3 µM)
MIC (Escherichia coli RGN 823): 12.5 mg/L (≈ 41.1 µM)
MIC [5]: 25 mg/L (≈ 82.1 µM)
MIC (Proteus mirabilis P6): 3.13 mg/L (≈ 10.3 µM)
MIC (Proteus rettgeri P7): 1.56 mg/L (≈ 5.13 µM)
MIC (Proteus sp. P22): 50 mg/L (≈ 164 µM)
MIC (Proteus vulgaris GN76): 50 mg/L (≈ 164 µM)
MIC (Providencia sp. P8): 3.13 mg/L (≈ 10.3 µM)
MIC [6]: 1.56 mg/L (≈ 5.13 µM)
MIC [7]: 1.56 mg/L (≈ 5.13 µM)
MIC (Sarcina lutea): 0.013 mg/L (≈ 0.0427 µM)
MIC (Serratia marcescens S18): 50 mg/L (≈ 164 µM)
MIC (Serratia marcescens T55): 100 mg/L (≈ 329 µM)
MIC [8]: 0.007 mg/L (≈ 0.023 µM)
MIC [9]: 0.013 mg/L (≈ 0.0427 µM)
MIC [10]: 0.013 mg/L (≈ 0.0427 µM)
MIC [11]: 0.013 mg/L (≈ 0.0427 µM)

Compound: CC(O)[C@H]1C(=O)N2C(C(=O)O)=C(Sc3ccncc3)C[C@H]12 (relative stereo) [Table I-1 R1=-OH*]
Antibiotic Activity minimum inhibitory concentration (Alcaligenes faecalis A 1): <0.007 mg/L
Antibiotic Activity minimum inhibitory concentration [1]: <0.007 mg/L
Antibiotic Activity minimum inhibitory concentration [3]: <0.007 mg/L
MIC [3]: 0.013 mg/L (≈ 0.0424 µM)
Antibiotic Activity minimum inhibitory concentration [4]: 1.56 mg/L
Antibiotic Activity minimum inhibitory concentration (Enterobacter sp. E8): 0.025 mg/L
Antibiotic Activity minimum inhibitory concentration (Escherichia coli K-12): 0.05 mg/L
MIC [5]: 25 mg/L (≈ 81.6 µM)
Antibiotic Activity minimum inhibitory concentration (Proteus rettgeri P7): 0.78 mg/L
MIC (Proteus sp. P22): 50 mg/L (≈ 163 µM)
MIC (Proteus vulgaris GN76): 50 mg/L (≈ 163 µM)
Antibiotic Activity minimum inhibitory concentration (Providencia sp. P8): 0.20 mg/L
MIC [6]: 1.56 mg/L (≈ 5.09 µM)
MIC [7]: 1.56 mg/L (≈ 5.09 µM)
Antibiotic Activity minimum inhibitory concentration (Sarcina lutea): <0.007 mg/L
Antibiotic Activity minimum inhibitory concentration (Serratia marcescens S18): 50 mg/L
MIC (Serratia marcescens S18): 100 mg/L (≈ 326 µM)
Antibiotic Activity minimum inhibitory concentration (Serratia marcescens T55): 25 mg/L
Antibiotic Activity minimum inhibitory concentration [8]: <0.007 mg/L
Antibiotic Activity minimum inhibitory concentration [9]: <0.007 mg/L
Antibiotic Activity minimum inhibitory concentration [10]: <0.007 mg/L
Antibiotic Activity minimum inhibitory concentration [11]: <0.007 mg/L

Solubility ([12]; in acetone): substantially insoluble
Solubility ([12]; in water): Readily soluble
absorbance at 300.0 nm that disappears [13]: about 93%
Compound: CC(=O)NCCSC1=C(C(=O)O)N2C(=O)C(C(C)O)C2C1 (stereo not shown) [PS-3 sodium salt, 3-(2-acetamidoethylthio)-6-(1-hydroxyethyl)-7-oxo-1-azabicyclo[3.2.0]hept-2-ene-2-carboxylic acid]
